Paper PMC10009755, “Discovery and Characterization of BAY-805, a Potent and Selective Inhibitor of Ubiquitin-Specific Protease USP21” (Journal of Medicinal Chemistry, 2023)
Read-outs that look alike come from different tables or passages of the source. One block for each compound: values may come before it.

Columns and labels:
[1] = molecular target: T1, USP2 (Homo sapiens, UniProt O75604); assay: hUSP2 Ub-rhodamine 110 assay; assay type: biochemical; settings: arithmetic means of multiple measurements; read-out: IC50 hUSP2 Ub-Rhod
T1 construct: His tag
T1 sequence (O75604 259-605): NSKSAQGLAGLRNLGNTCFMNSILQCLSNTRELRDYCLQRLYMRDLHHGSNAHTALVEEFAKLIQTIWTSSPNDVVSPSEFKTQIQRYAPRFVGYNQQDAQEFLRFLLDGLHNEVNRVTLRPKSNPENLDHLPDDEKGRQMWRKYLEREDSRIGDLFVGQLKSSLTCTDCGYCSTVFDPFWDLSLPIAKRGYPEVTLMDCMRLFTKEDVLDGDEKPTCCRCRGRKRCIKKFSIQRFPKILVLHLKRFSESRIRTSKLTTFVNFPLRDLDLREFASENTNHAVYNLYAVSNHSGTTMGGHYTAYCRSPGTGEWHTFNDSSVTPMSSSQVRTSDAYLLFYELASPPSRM
Protocol: The final assay volume was 6 μL.

[2] = molecular target: T1, USP2; assay: Thermal shift assay (TSA); assay type: binding; settings: 100 μM compound
[3] = molecular target: T2, USP7 (Homo sapiens, UniProt Q93009); assay: Thermal shift assay (TSA); assay type: binding; settings: 100 μM compound
T2 construct: purchased Ubiquigent (DUBprofiler service)

[4] = molecular target: T3, USP21 (Homo sapiens, UniProt Q9UK80); assay: SPR binding; settings: equilibrium binding, 15 °C
T3 construct: made in house; host or cells: E. coli BL21(DE3)

[5] = log D measurement (HPLC); assay type: physicochemical; settings: reverse-phase HPLC, pH 7.5, pH 7.5, HPLC method; read-out: logD7.5
Protocol: log D values at pH 7.5 were recorded using an indirect method for determining hydrophobicity constants by reverse-phase HPLC. A series of compounds with well-known log D values were used for calibration. Test compounds were injected into the same HPLC system. The lipophilicity of compounds was then assessed by comparison to the calibration curve.

[6] = tested on: panel of 10 individual USPs; assay: SGC USP selectivity screen, whole panel; assay type: biochemical; settings: 10 and 50 μM
[7] = molecular target: T4, USP21 (Homo sapiens, UniProt Q9UK80)
T4 sequence (Q9UK80 1-565): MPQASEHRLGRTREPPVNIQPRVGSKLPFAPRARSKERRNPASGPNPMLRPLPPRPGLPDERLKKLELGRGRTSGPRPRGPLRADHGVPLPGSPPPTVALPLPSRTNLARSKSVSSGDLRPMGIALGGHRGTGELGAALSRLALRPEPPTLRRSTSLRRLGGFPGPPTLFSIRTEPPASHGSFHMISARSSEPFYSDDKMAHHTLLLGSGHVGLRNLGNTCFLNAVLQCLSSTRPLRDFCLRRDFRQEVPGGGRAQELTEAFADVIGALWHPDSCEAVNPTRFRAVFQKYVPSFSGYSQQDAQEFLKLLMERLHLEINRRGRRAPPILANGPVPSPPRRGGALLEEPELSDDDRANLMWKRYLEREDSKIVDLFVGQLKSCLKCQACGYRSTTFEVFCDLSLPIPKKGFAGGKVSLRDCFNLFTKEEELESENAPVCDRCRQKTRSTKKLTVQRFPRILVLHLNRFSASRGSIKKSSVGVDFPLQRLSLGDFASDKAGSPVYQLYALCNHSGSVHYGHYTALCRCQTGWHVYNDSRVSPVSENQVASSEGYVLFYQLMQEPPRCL

[8] = molecular target: T4, USP21; remark: listed apart in the source
[9] = molecular target: T4, USP21; assay: Ubiquitin aminoluciferin (Ub-AML) assay; assay type: biochemical; parameters: […]; ZZ tag; made in house
Protocol: The final assay volume was 8 μL. […] The reaction was stopped with 2 μL of 200 μM PR619. Then, 2 μL of luciferin detection reagent (Promega V8920/1) was used to detect luciferin at a final concentration of 0.5-fold. For the luminescence detection, 1536-well plates (Greiner, white) were measured on the ViewLux at 120 s exposure time.

[10] = molecular target: T4, USP21; assay: Thermal shift assay (TSA); assay type: binding; parameters: purchased Ubiquigent (DUBprofiler service); settings: 100 μM compound
Protocol: Experiments were carried out with the QuantStudio7 Flex Real-Time PCR system (Thermo Fisher Scientific) in a 384-well plate format with 5 μL of reaction volume. Melting curves were obtained at an USP21 protein concentration of 3.8 μM and 5xSYPRO Orange (Invitrogen) using a buffer containing 20 mM Tris, pH 7.5; 150 mM NaCl; 10% glycerol; and 1.0 mM TCEP. […] For binding experiments, compounds were added from 10 mM stock solution to a final concentration of 100 μM. As a control, 1% DMSO was used. Scans were measured from 25 to 95 °C at a scanning rate of 4 °C/min. All TSA data were analyzed using a Genedata Assay Analyzer.

[11] = molecular target: T5, Cholinesterase, Acetyl, ACES (Homo sapiens, UniProt P22303); assay: Eurofins Panlabs safety screen; assay type: biochemical
T5 construct: Eurofins Panlabs
T5 sequence (P22303 32-614): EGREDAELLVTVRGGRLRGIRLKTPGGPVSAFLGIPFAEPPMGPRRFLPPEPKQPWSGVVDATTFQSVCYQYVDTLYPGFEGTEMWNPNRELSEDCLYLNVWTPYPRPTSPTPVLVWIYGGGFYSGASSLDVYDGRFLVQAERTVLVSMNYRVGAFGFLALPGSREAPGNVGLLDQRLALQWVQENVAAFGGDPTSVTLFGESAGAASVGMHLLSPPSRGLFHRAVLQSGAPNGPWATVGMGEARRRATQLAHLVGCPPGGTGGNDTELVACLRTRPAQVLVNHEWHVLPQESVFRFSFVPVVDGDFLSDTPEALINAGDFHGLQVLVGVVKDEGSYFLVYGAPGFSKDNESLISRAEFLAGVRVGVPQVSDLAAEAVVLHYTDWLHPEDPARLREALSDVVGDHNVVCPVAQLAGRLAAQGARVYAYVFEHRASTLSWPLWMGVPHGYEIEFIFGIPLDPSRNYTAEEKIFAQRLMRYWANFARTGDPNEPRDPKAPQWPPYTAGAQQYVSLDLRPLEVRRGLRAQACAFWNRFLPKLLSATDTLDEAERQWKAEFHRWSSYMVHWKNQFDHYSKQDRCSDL

[12] = molecular target: T6, Adrenergic α1A (Homo sapiens, UniProt P35348); assay: Eurofins Panlabs safety screen; assay type: binding
T6 construct: Eurofins Panlabs
T6 sequence (P35348 whole entry): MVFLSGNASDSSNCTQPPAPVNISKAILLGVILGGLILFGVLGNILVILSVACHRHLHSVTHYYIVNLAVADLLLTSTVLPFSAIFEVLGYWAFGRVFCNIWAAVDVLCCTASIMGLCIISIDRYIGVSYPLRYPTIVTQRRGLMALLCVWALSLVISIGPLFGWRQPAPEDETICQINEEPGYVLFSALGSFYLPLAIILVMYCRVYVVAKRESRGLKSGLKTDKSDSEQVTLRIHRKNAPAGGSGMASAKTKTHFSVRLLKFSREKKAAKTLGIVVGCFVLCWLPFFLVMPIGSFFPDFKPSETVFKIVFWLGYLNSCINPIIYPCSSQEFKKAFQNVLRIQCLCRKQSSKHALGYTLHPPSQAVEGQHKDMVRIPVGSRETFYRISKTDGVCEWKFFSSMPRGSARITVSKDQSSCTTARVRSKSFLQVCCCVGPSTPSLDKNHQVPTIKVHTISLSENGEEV

[13] = molecular target: T7, Adrenergic α2A (Homo sapiens, UniProt P08913); assay: Eurofins Panlabs safety screen; assay type: binding
T7 construct: Eurofins Panlabs

[14] = molecular target: T8, Adrenergic α2B (Homo sapiens, UniProt P18089); assay: Eurofins Panlabs safety screen; assay type: binding
T8 construct: Eurofins Panlabs

[15] = molecular target: T9, Adrenergic α2C (Homo sapiens, UniProt P18825); assay: Eurofins Panlabs safety screen; assay type: binding
T9 construct: Eurofins Panlabs

[16] = molecular target: Androgen (Testosterone) (Homo sapiens, UniProt P10275); assay: Eurofins Panlabs safety screen; assay type: binding
[17] = molecular target: Cannabinoid CB1 (Homo sapiens, UniProt P21554); assay: Eurofins Panlabs safety screen; assay type: binding
Cannabinoid CB1, sequence (P21554 whole entry): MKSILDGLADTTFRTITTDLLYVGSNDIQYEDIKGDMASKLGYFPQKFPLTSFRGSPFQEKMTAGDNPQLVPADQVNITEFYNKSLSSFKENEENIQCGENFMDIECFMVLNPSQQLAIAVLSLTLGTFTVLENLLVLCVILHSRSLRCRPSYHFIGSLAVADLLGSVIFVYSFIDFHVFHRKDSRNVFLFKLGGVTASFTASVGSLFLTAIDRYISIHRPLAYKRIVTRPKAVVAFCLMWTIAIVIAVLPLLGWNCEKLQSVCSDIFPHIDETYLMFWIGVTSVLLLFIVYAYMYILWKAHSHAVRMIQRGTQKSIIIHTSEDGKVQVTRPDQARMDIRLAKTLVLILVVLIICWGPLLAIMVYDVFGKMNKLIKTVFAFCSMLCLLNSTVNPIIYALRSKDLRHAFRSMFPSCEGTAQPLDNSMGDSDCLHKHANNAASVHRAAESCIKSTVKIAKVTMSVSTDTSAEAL

[18] = molecular target: Cannabinoid CB2 (Homo sapiens, UniProt P34972); assay: Eurofins Panlabs safety screen; assay type: binding
[19] = molecular target: Dopamine D1 (Homo sapiens, UniProt P21728); assay: Eurofins Panlabs safety screen; assay type: binding
[20] = molecular target: Dopamine D2L (Homo sapiens, UniProt P14416); assay: Eurofins Panlabs safety screen; assay type: binding
[21] = molecular target: Dopamine D2S (Homo sapiens, UniProt P14416); assay: Eurofins Panlabs safety screen; assay type: binding
[22] = molecular target: Dopamine D3 (Homo sapiens, UniProt P35462); assay: Eurofins Panlabs safety screen; assay type: binding
[23] = molecular target: T10, Muscarinic M1 (Homo sapiens, UniProt P11229); assay: Eurofins Panlabs safety screen; assay type: binding
T10 construct: Eurofins Panlabs

[24] = molecular target: T11, Muscarinic M2 (Homo sapiens, UniProt P08172); assay: Eurofins Panlabs safety screen; assay type: binding
T11 construct: Eurofins Panlabs
T11 sequence (P08172 whole entry): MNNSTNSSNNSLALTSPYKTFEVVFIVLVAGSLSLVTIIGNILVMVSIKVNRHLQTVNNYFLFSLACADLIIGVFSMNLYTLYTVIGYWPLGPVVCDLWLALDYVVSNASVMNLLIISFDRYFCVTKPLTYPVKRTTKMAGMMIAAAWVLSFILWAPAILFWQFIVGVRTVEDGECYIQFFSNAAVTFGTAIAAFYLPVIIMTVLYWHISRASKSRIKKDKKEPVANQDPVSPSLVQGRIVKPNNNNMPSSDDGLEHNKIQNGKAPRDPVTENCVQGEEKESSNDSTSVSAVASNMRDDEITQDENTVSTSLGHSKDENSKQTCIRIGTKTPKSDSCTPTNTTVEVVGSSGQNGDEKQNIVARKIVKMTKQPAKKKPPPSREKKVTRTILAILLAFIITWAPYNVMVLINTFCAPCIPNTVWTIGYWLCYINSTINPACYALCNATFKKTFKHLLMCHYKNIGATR

[25] = molecular target: T12, Muscarinic M3 (Homo sapiens, UniProt P20309); assay: Eurofins Panlabs safety screen; assay type: binding
T12 construct: Eurofins Panlabs

[26] = molecular target: T13, Muscarinic M4 (Homo sapiens, UniProt P08173); assay: Eurofins Panlabs safety screen; assay type: binding
T13 construct: Eurofins Panlabs
T13 sequence (P08173 whole entry): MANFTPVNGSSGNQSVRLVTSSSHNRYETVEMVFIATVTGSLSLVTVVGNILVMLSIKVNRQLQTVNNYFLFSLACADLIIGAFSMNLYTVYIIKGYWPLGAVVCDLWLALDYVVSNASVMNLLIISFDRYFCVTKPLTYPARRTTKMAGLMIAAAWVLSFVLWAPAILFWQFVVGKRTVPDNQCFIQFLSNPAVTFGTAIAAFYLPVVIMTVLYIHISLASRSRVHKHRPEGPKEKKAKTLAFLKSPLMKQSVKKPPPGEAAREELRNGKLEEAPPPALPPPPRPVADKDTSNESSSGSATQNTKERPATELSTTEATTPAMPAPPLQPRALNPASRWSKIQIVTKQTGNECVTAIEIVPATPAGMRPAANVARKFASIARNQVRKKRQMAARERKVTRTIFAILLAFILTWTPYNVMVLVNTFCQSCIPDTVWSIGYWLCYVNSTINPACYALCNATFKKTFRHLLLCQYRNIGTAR

[27] = molecular target: T14, Nicotinic Acetylcholine α3β4 (Homo sapiens, UniProt P30926+P32297); assay: Eurofins Panlabs safety screen; assay type: binding
T14 construct: Eurofins Panlabs
T14 sequence (P32297 32-505): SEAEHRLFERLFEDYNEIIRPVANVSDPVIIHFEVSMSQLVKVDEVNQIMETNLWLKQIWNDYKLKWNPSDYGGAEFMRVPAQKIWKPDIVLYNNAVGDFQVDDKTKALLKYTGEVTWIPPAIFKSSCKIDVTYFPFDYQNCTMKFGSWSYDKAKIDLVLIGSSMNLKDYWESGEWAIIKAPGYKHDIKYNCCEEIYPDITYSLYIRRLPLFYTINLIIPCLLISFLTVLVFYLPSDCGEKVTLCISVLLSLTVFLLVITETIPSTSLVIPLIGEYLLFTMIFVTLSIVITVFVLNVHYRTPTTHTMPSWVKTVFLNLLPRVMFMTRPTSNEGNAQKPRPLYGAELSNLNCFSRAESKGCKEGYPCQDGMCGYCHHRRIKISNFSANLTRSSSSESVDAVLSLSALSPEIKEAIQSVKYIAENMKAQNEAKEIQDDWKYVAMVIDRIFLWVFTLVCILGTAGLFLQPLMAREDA
T14 sequence (P30926 22-498): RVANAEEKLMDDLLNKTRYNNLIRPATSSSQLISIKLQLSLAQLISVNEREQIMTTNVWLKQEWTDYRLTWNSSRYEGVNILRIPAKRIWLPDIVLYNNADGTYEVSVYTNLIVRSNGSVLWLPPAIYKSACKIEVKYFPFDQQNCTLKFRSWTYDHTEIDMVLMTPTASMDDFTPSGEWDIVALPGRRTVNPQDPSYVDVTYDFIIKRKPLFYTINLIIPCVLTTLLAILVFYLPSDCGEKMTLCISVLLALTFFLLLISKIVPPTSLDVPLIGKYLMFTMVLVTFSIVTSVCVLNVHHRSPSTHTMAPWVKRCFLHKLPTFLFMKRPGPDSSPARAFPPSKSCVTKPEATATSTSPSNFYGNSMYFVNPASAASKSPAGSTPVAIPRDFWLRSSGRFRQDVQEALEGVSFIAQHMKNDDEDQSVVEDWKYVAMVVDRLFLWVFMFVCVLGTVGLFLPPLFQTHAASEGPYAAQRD

[28] = molecular target: T15, Opiate δ1 (OP1, DOP) (Homo sapiens, UniProt P41143); assay: Eurofins Panlabs safety screen; assay type: binding
T15 construct: Eurofins Panlabs

[29] = molecular target: T16, Opiate κ (OP2, KOP) (Homo sapiens, UniProt P41145); assay: Eurofins Panlabs safety screen; assay type: binding
T16 construct: Eurofins Panlabs

[30] = molecular target: T17, Opiate μ (OP3, MOP) (Homo sapiens, UniProt P35372); assay: Eurofins Panlabs safety screen; assay type: binding
T17 construct: Eurofins Panlabs

[31] = molecular target: T18, Serotonin (5-Hydroxytryptamine) 5-HT1A (Homo sapiens, UniProt P08908); assay: Eurofins Panlabs safety screen; assay type: binding
T18 construct: Eurofins Panlabs

[32] = molecular target: T19, Serotonin (5-Hydroxytryptamine) 5-HT2A (Homo sapiens, UniProt P28223); assay: Eurofins Panlabs safety screen; assay type: binding
T19 construct: Eurofins Panlabs

[33] = molecular target: T20, Serotonin (5-Hydroxytryptamine) 5-HT2B (Homo sapiens, UniProt P41595); assay: Eurofins Panlabs safety screen; assay type: binding
T20 construct: Eurofins Panlabs
T20 sequence (P41595 whole entry): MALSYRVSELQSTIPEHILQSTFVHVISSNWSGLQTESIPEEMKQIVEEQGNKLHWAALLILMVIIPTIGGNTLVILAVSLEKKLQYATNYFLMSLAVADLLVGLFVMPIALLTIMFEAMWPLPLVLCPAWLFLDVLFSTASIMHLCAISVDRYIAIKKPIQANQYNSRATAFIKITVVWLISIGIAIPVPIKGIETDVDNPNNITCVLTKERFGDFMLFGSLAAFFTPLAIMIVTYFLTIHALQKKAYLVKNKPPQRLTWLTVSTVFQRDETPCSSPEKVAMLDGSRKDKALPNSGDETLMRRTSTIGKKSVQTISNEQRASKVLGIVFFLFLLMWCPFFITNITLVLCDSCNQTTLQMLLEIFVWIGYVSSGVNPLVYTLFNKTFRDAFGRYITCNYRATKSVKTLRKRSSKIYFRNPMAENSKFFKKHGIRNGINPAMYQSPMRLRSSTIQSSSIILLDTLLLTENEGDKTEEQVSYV

[34] = molecular target: T21, Serotonin (5-Hydroxytryptamine) 5-HT2C (Homo sapiens, UniProt P28335); assay: Eurofins Panlabs safety screen; assay type: binding
T21 construct: Eurofins Panlabs

[35] = molecular target: T22, Fms(h) (Homo sapiens, UniProt P07333); assay: Eurofins kinase panel; assay type: biochemical
T22 construct: purchased Eurofins (formerly Millipore/Upstate) KinaseProfiler

[36] = molecular target: T23, PRP4(h) (Homo sapiens, UniProt Q13523); assay: Eurofins kinase panel; assay type: biochemical
T23 construct: purchased Eurofins (formerly Millipore/Upstate) KinaseProfiler
T23 sequence (Q13523 whole entry): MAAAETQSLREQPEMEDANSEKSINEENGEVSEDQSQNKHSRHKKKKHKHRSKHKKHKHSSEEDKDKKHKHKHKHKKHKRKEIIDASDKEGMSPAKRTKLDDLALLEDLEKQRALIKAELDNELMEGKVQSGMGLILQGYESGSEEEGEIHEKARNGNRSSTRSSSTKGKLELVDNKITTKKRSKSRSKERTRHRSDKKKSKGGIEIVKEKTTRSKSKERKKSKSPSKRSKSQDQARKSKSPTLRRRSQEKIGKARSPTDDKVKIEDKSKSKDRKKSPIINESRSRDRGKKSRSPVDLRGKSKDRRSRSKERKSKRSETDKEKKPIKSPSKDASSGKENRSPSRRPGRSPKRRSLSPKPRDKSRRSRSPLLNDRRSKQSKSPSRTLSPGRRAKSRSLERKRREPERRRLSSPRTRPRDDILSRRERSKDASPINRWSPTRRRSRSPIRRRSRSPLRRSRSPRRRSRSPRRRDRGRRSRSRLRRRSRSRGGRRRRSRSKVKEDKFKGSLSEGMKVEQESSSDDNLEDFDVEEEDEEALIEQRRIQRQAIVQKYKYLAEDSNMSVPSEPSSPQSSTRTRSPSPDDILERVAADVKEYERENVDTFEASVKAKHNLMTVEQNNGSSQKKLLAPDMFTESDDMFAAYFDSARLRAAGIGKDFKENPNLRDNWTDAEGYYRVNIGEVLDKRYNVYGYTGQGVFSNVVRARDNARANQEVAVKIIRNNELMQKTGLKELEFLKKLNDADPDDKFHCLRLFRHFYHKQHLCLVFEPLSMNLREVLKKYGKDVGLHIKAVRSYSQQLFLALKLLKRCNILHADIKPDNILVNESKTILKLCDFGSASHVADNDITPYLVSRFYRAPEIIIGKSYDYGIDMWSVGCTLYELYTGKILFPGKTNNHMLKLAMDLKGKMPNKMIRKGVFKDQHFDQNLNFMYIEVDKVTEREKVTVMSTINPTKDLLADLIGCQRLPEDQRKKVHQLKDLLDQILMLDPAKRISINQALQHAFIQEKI

IC50 [1]: > 25 µM
ΔTm at 100 µM [2]: 0 °C
ΔTm at 100 µM [3]: 0 °C
Kd [4]: 7.87 µM
chromatographic logD [5]: 2.3
IC50 [7]: 11.8 µM
IC50 [8]: > 22.5 µM
IC50 [9]: > 22.5 µM
ΔTm at 100 µM [10]: 4.9 °C
SMILES: CC(NC(=O)C1CCCC1)C(=O)Nc1nnc(Cc2ccc([N+](=O)[O-])cc2)s1 (stereo not shown) [Compound 1, CC(NC(=O)C1CCCC1)C(=O)Nc2nnc(Cc3ccc(cc3)[N+](=O)[O-])s2]
inhibition of other tested DUB targets besides USP21 [6]: ≤ 50%

SMILES: CC(C)C[C@H](NC(=O)C1(C(F)(F)F)CCCCC1)C(=O)Nc1nnc(Cc2ccc(C#N)cc2)s1 [Compound 22, CC(C)C[C@H](NC(=O)C1(CCCCC1)C(F)(F)F)C(=O)Nc2nnc(Cc3ccc(cc3)C#N)s2]
IC50 [11]: 6.87 µM
inhibition at 10 µM [11]: 75%
inhibition at 0.1 µM ([11]; IC50 determination, 0.1 µM): 18%
inhibition at 0.3 µM ([11]; IC50 determination, 0.3 µM): 4%
inhibition at 1 µM ([11]; IC50 determination, 1 µM): 19%
inhibition at 3 µM ([11]; IC50 determination, 3 µM): 8%
inhibition at 10 µM ([11]; IC50 determination): 76%
inhibition at 30 µM ([11]; IC50 determination, 30 µM): 78%
inhibition at 10 µM [12]: 13%
inhibition at 10 µM [13]: 13%
inhibition at 10 µM [14]: 1%
inhibition at 10 µM [15]: 12%
inhibition at 10 µM [16]: 7%
inhibition at 10 µM [17]: 3%
inhibition at 10 µM [18]: 4%
inhibition at 10 µM [19]: 2%
inhibition at 10 µM [20]: 17%
inhibition at 10 µM [21]: 25%
inhibition at 10 µM [22]: 2%
inhibition at 10 µM [23]: 36%
inhibition at 10 µM [24]: 24%
inhibition at 10 µM [25]: 4%
inhibition at 10 µM [26]: -8%
inhibition at 10 µM [27]: -1%
inhibition at 10 µM [28]: 5%
inhibition at 10 µM [29]: 12%
inhibition at 10 µM [30]: -3%
inhibition at 10 µM [31]: 5%
inhibition at 10 µM [32]: 2%
inhibition at 10 µM [33]: 2%
inhibition at 10 µM [34]: 14%
inhibition at 10 µM [35]: 0.62%
inhibition at 10 µM [36]: -7.38%
